{"source": "patent US20240226126A1", "about": "“COMPOSITIONS FOR TREATMENT OF PSORIASIS” (The Board of Trustees of the Leland Stanford Junior …, priority 2021, published 2024)", "key": {"[1]": {"system": "V12KC (primary keratinocytes transduced with V12 Rac1)", "test": "Proliferation of V12 Rac1 transduced primary keratinocytes vs LacZ control", "assay_type": "cell-based", "conditions": "Homo sapiens, Keratinocyte"}, "[2]": {"system": "primary psoriasis keratinocytes (PSOKC)", "test": "MTT proliferation assay, primary psoriasis keratinocytes", "assay_type": "cell-based, human", "conditions": "for proliferation in PSOKCs: 10 μM", "method": "MTT assays. 10000 third-passage adult keratinocytes per well, or 25000 for IC50 curves, were seeded on a collagen-coated 96 well plate, and incubated with 50/50 (Medium 154 and Keratinocyte—SFM medium, Invitrogen with Human Keratinocytes Growth Supplement, S-001-5, Invitrogen, and Medium 154 supplement M-154-6 500, Invitrogen) with 1% antibiotic-antimycotic (30-004-CI, Mediatech Inc) for 48 h. 10 ul MTT reagent (MTT proliferation assay, ATCC, Manassas, US) was added for 4 h, 100 ul detergent was added to each well for 4 hours, and absorbance read at 570 nm (Spectramax M5, Molecular Devices, US), normalized to cell-free control absorbance.\nSmall molecule inhibition. All small molecules were diluted into concentrated stock solutions (all except YM-244769 were made into 50 mM stock solutions) in DMSO, and stored in aliquots at −20 C. Aliquots were thawed, then diluted to a 1000× stock concentration, then added to media so that final DMSO concentration is 0.1%. All in vitro studies entailing small molecule inhibition were accessed over 24 hour incubation period.\nStatistical analysis. Microrarray data was analyzed using the affy package from Bioconductor on R statistical software package. Other statistical analysis was performed using Graphpad Prism 7.03, and statistical tests (unpaired t-tests with Welch correction, paired t-test, Mann-Whitney unpaired test, and linear regression analysis with goodness of fit) and sample sizes are outlined in each figure legend. Components of signature for goodness of fit by linear regression analysis were extrapolated from the benzamil rank aggregation algorithm All error bars denotes standard error of the mean. For IC50 calculations, MTT data absorbance values were calculated for percent change from the 0.1% DMSO vehicle condition. A non-linear fitted curve [log (inhibitor) vs response (three parameters)] in GraphPad Prism 7 was used to determine IC50 values. For mouse and xenograft experiments, ad hoc power calculations were based on prior phenotypic characterization of these models. Transgenic mice were randomized from same litters when possible, or based on similar phenotypic disease severity, and all experiments were run in triplicates or more. Sample size of xenografts mice studies were based on patient sample availability and a predicted graft take rate of 80%. For all comparisons, p values of less than 0.05 were considered statistically significant. All tests were two-tailed unless specified in figure legends.\n(§1) Small molecule inhibitors. 10 uM benzamil hydrochloride hydrate (Sigma B2417), 10 uM amiloride hydrochloride (Tocris 890) 10 uM zoniporide dihydrochloride (Tocis 2727), 10 nM YM-244769 (Tocris 4544), 10 uM SEA 0400 2-[4-[(2,5-944 difluorophenyl)methoxy]phenoxy]-5-ethoxyaniline) (Tocris 6164), 10 uM triamterene (Sigma-Aldrich T4143)."}, "[3]": {"system": "Rac1V12 transgenic mice", "test": "Rac1V12 transgenic mouse model of psoriasis", "assay_type": "in vivo", "method": "Transgenic mice and mice for xenografting Rac1V12-transgenic mice were generated as previously described. For xenografting, NOD/SCID mice were used (NOD.CB17-PrkdcSCID/J mice; stock 001303; The Jackson Laboratory).\nTopical formulation and administration. A rudimentary preparation of benzamil was tested using benzamil (6 mg/ml, benzamil, Sigma) in 100% ethanol. This solution was then topically applied through submerged and air-drying tails of mice under anesthesia, once daily for 15 days. Similarly, benzamil was suspended in water (2 mg/ml), then mixed into Vaseline, vortexed and centrifuged until a clear solution was obtained. A final formulation of benzamil is described in supplementary material and methods. For intraperitoneal injections, benzamil was dissolved at 2 mg/ml in water, and 0.7, 1.4 or 2.1 mg/kg was injected IP daily. For osmotic pump injections, Alzet osmotic pumps were used, (Alzet minipump 1002). Pumps were filled with 100 ul of benzamil in ethanol under sterile conditions, at a final dose of 2 mg/kg/day, and subcutaneous, inter-scapular implantations were performed under anesthesia. Pumps were replaced once for a total of 2×14 days treatment period.\nTopical formulation of benzamil. A labrasol (88%) based formulation of benzamil was generated containing benzamil (1%, w/w), span-20 (1%) and cetyltrimethylammonium bromide (CTAB) (10%). Constituents were dissolved in ethyl alcohol, mixed well using vortex and sonication at 37° C. until a clear solution was obtained. Ethyl alcohol was evaporated in a Speedvac. The residue was suspended in Labrasol and homogenized to obtain the final formulation.\nFor a final formulation of benzamil (for use on human reconstructed skin), 52 ml water, 5.2 ml glycerin, 9.7 ml rice bran oil, 4 ml caprylic aid triglyceride, 6.2 g cetearyl alcohol, 8.6 g 50/50 mixture of cetearyl glucoside and cetearyl alcohol and 3.5 g cocoa butter was heated to 75° C. until dissolved, removed from heat, mixed using Cimarec 2 magnetic stir. At 45° C. […]"}, "[4]": {"system": "Human Primary keratinocytes", "test": "Cytokine response of TNF-α/IL-17 stimulated keratinocytes (Luminex)", "assay_type": "cell-based", "conditions": "TNF-α 10 ng/ml and IL-17 10 ng/ml, 48 hours", "method": "Human Primary keratinocytes were purchased from Thermo Fisher. Keratinocytes were cultured in medium 154 supplemented with HKGS, split using TrypLE and neutralized using DMEM supplemented with 10% FBS. Cells were split to keep 20-80% confluency and not passaged above passage 5. Keratinocytes were detached using TrypLE Express, Trypsin Neutralizer solution was added and the detached cells transferred to a sterile conical tube. Cells were resuspended in 15 ml medium with HKGS supplemented (cat no S-001-K) but without hydrocortisone. The cells were pipetted up and down with a 10 ml pipette to ensure a homogeneous cell suspension.\nHuman primary keratinocytes detached as described above, were resuspended in PBS at 1×10^6 cells/ml and filtered through a 35 μm cell strainer. Cells were stained with CellTrace Violet at 5 μM for 20 minutes at 37° C., 5% CO2. After staining, DMEM supplemented with 10% FBS was added to stop staining and cells was incubated at 37° C., 5% CO2 for 5 minutes. After incubation, cells were washed with PBS 1× and resuspended in Medium 154 supplemented with HGKS without hydrocortisone at 6×10^5 cells/ml and 200 μl was added to wells in a 96-well flat bottom cell culture plate. Cells were incubated overnight at 37° C., 5% CO2/95% air. […]\nSupernatants were analyzed for cytokines IL-6, IL-8, and CXCL1 using Luminex. […] Samples were analyzed on a Bio-Rad Luminex 200 analyzer. […]"}, "[5]": {"system": "PSOKCs", "test": "Intracellular pH assay (pHrodo red)", "assay_type": "cell-based, human", "conditions": "PSOKCs / primary keratinocytes overexpressing Rac1, 24 h, 10 uM; listed as Zoniporide", "method": "Intracellular pH assays 25,000 were seeded per well of 96-well plate and allowed cells to settle and recover for 24 hrs. Small molecules or 0.1% DMSO vehicle control was added to culture media for 24 hours (n=6-8). Cells were washed once with 1× Live Cell Imaging Solution (LCIS) (ThermoFisher A14291DJ), and then incubated with pHrodo red (ThermoFisher P35372), PowerLoad (ThermoFisher P35372), in LCIS with added 1:5000 Hoechst (Life Technologies) for 30 min at 37 C 5% CO2 with corresponding small molecule added at same concentration used for 24 hour incubation.\nas §1\nIntracellular pH assays and standard curves. Cells were also washed 3 times with 1×LCIS with the last wash of 100 uL kept on cells. For generation of pH standard curve, additional wells (n=6-8) were treated as described with an addition of 0.1% DMSO vehicle for 24 hours. […] The 96-well plate was then read on a fluorescence microplate reader (Spectramax M5, Molecular Devices) with excitation/emission of […] and 361/497. […]"}}, "note": "“Also recorded” adds a separate entry of the source. Read-outs that look alike come from different tables or passages of the source."}
{"molecule": "NC(=NCc1ccccc1)NC(=O)c1nc(Cl)c(N)nc1N", "note": "[benzamil]", "values": [{"measurement": "IC50", "setting": "[1]", "result": 990, "unit": "nM"}, {"measurement": "IC50", "setting": "[2]; cells from 5 psoriasis donors, read-out: IC50 on proliferation", "result": "~1000", "unit": "nM"}, {"measurement": "IC50", "setting": "[2]; range across donors, read-out: IC50 range in five psoriasis donor primary keratinocyte cultures", "result": "0.1 to 4600", "unit": "nM"}]}
{"molecule": "C[C@H]1C[C@H]2[C@@H]3CCC4=CC(=O)C=C[C@]4(C)[C@@]3(F)[C@@H](O)C[C@]2(C)[C@@]1(O)C(=O)CCl", "note": "[clobetasol]", "values": [{"measurement": "epidermal thickness", "setting": "[3]; topical, compared to vehicle", "result": "reduction in epidermal thickness"}]}
{"molecule": "Cc1cc(I)ccc1Nc1c(C(=O)NOCC2CC2)cc(F)c(F)c1F", "note": "[PD198306]", "values": [{"measurement": "concentration with decrease of CXCL1", "setting": "[4]", "result": 100, "unit": "nM"}]}
{"molecule": "C=C(CC)C(=O)c1ccc(OCC(=O)O)c(Cl)c1Cl", "note": "[Ethacrynic acid]", "values": [{"measurement": "concentration with decrease of IL-8", "setting": "[4]", "result": 10, "unit": "µM"}]}
{"molecule": "Nc1nc(N)c2nc(-c3ccccc3)c(N)nc2n1", "note": "[triamterene]", "values": [{"measurement": "proliferation in PSOKCs", "setting": "[2]", "result": "not achieved by amiloride or triamterene; also recorded: not amiloride or triamterene reduced proliferation"}]}
{"molecule": "N=C(N)NC(=O)c1cnn(-c2cccc3ncccc23)c1C1CC1", "note": "[zoniporide]", "values": [{"measurement": "proliferation in PSOKCs", "setting": "[2]", "result": "recapitulated benzamil's significant capacity to reduce proliferation"}, {"measurement": "proliferation in PSOKCs", "setting": "[2]; listed as Zoniporide", "result": "reduced proliferation in PSOKCs to levels observed by Benzamil"}, {"measurement": "intracellular pH", "setting": "[5]", "result": "significantly reduced intracellular pH"}]}
{"molecule": "Bromocriptine", "values": [{"measurement": "signs of improvement (scaling, ulceration, erythema, epidermal thickening)", "setting": "[3]; intraperitoneal 10 mg/kg every other day, 20 treatments, vs baseline", "result": "improved after treatment"}]}
{"molecule": "N=C(N)NC(=O)c1nc(Cl)c(N)nc1N", "note": "[amiloride]", "values": [{"measurement": "psoriasiform hyperplasia", "setting": "[3]; systemic", "result": "failed to demonstrate any effect"}, {"measurement": "proliferation in PSOKCs", "setting": "[2]", "result": "not achieved by amiloride or triamterene; also recorded: not amiloride or triamterene reduced proliferation"}]}
